The subject of the test is Helminthosporium oryzae. Briefly: Mycelial growth test. Conditions: Bipolaris oryzae, 72 h; for inhibition at 5 ppm: read-out: Percent Fungus Growth Inhibition, HO, 5 ppm, 72 hours; for inhibition at 10 ppm: read-out: Percent Fungus Growth Inhibition, HO, 10 ppm, 72 hours; for inhibition at 20 ppm: read-out: Percent Fungus Growth Inhibition, HO, 20 ppm, 72 hours; for inhibition at 40 ppm: read-out: Percent Fungus Growth Inhibition, HO, 40 ppm, 72 hours.

Procedure: HO = Helminthosporium oryzae
Aliquots of previously prepared solutions of active ingredient in acetone were added to tubes containing 20 ml of sterile, melted potato dextrose agar that had been cooled to 50° C. to provide mixtures of 40, 20, 10, 5 and 2.5 ppm. The tubes were shaken to ensure thorough mixing of the chemical with the agar, and the mixture poured into petri dishes having 4 quadrants to solidify. Each quadrant was inoculated with a 4 mm diameter disc of agar containing mycelium of the test fungi and incubated at 25° C. for 72 hours during which the samples were alternately exposed to light for 12 hours and to darkness for 12 hours. Growth was measured at the end of the incubation period by measuring the diameter of each fungus colony. Two measurements of the diameter, perpendicular to each other, were taken and the values averaged. Data are reported as percent inhibition (%I) by the following formula: [formula] Captan and chlorothalonil were used as standards for comparison.

For `Cc1cc(Cl)c(Oc2nsnc(Cl)c2=O)cc1C` [Compound 58, 3-chloro-5-[(2-chloro-4,5-dimethyl)phenoxy]-4H--1,2,6-thiadiazin-4-one], the inhibition – broadly, the relative decrease from the control value, in per cent – at 5 ppm was 54%; the inhibition at 10 ppm came out at 54%; the inhibition at 20 ppm was found to be 69%; the inhibition at 40 ppm stood at 69%.
With `Cc1cc(Oc2nsnc(Cl)c2=O)cc(C)c1Cl` [Compound 59, 3-chloro-5-[(4-chloro-3,5-dimethyl)phenoxy]-4H--1,2,6-thiadiazin-4-one], the inhibition at 5 ppm worked out at 100%, the inhibition at 10 ppm was found to be 100%, the inhibition at 20 ppm was determined as 100% and the inhibition at 40 ppm is 100%.
For the compound `Cc1cc(Oc2nsnc(Cl)c2=O)cc(C)c1Br` [Compound 60, 3-[(4-bromo-3,5-dimethyl)-phenoxy]-5-chloro-4H--1,2,6-thiadiazin-4-one], the inhibition at 5 ppm was 100%, the inhibition at 10 ppm came out at 77%, the inhibition at 20 ppm was 69% and the inhibition at 40 ppm is 100%.
On to `COc1cc(Oc2nsnc(Cl)c2=O)cc(OC)c1C(C)=O` [Compound 61, 3-[(4-acetyl-3,5-dimethoxy)-phenoxy]-5-chloro-4H--1,2,6-thiadiazin-4-one], for which the inhibition at 5 ppm came to 13%, the inhibition at 10 ppm was 33%, the inhibition at 20 ppm turned out to be 100% and the inhibition at 40 ppm turned out to be 100%.

Source of the values: US4450269A, “Mono-5-substituted-3-chloro-4H-1,2,6-thiadiazin-4-one antifungal agents” (FMC Corporation, priority 1980, dated 1984).
